# Values of other authors as cited in US12409106B2, “Medical material” (Senju USA, Inc., priority 2022, dated 2025).
# Details: Soong T. Chiang et al., Pharmacotherapy 1996
compound,measurement,value
Nc1c(CC(=O)O)cccc1C(=O)c1ccc(Br)cc1 [bromfenac],topical 50% effective concentration EC50 on pain after oral surgery,0.36 µg/mL
